# Measurements published in US8642656B2, “Calixarene-based peptide conformation mimetics, methods of use, and methods of making” (priority 2004, dated 2014).
# “Also recorded” adds a separate entry of the source. Like-named read-outs stand apart in the source and are kept apart here.
# Columns and labels:
# LPS from P. aeruginosa = assay: LPS neutralization assay (Limulus amoebocyte lysate, QCL-1000); assay type: biochemical, Pseudomonas aeruginosa; settings: read-out: IC50 values (μM) for LPS binding, P.a.
# Outline: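 In vitro quantitative LAL test: compounds inhibiting activation by 0.04 units LPS reduce yellow pNA formation (405-410 nm). 0.04 units equals 0.01 ng P. aeruginosa or E. coli 0111:B4 LPS and 0.03 ng S. typhimurium or S. marcascens LPS. Sigmoidal fits yield IC50.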
# [1] = test system: MA148 human ovarian carcinoma; assay: Proliferation of MA148 tumor cells; assay type: cell-based; settings: read-out: IC50 against MA148 tumor cells
# B16F10 tumor = assay: TUNEL staining for total cell apoptosis, B16F10 tumors; assay type: in vivo, mice; settings: B16F10, 10 mg/kg; mean ± standard error, 20 images
# Protocol: To assess the extent of total cell apoptosis, tumor tissue sections were stained by using the TUNEL (terminal deoxyribonucleotidyl transferase-mediated dUTP-nick-end labeling) assay, which was performed according to the manufacturer's instructions (In situ cell death detection kit, fluorescein; TUNEL, Roche). After 1-hour incubation at room temperature, slides were washed with PBS and immediately imaged using an Olympus BX-60 fluorescence microscope at 200× magnification.
# [2] = test system: leukocytes in tumors of tumor bearing mice; assay: Leukocyte infiltration into tumors, anti-CD45 and anti-CD8 staining; assay type: in vivo; settings: compared with βpep-25; FIG. 4
# Protocol: Female athymic nude mice (nu/nu, 5-6 weeks old) were used. These mice were purchased from the National Cancer Institute and allowed to acclimatize to local conditions for at least one week. Animals were given water and standard chow ad libitum, and were kept on a 12-hour light/dark cycle. All experiments were approved by the University of Minnesota Research Animal Resources ethical committee. Mice were randomized and split into three groups: 1) human serum albumin (10 mg/kg/day), 2) βpep-25 (10 mg/kg/day) and 3) peptide mimetic agent (5 mg or 10 mg/kg/day). Test compounds were diluted in DMSO and administered using osmotic mini-pumps (Durect, Cupertino, Calif.). Exponentially growing MA148 human ovarian carcinoma cells, kindly provided by Prof. Ramakrishnan (R. P. Dings et al., Cancer Res., 63, 382-385 (2003)) or B16 mouse melanoma cells were cultured in RPM1 1640 medium (Life Technologies, Grand Island, N.Y.). This medium was supplemented with 10% fetal bovine serum and 1% penicillin/streptomycin (Cellgro, Mediatech, Washington, D.C.) at 37° C and 5% CO2. […]
# Similar size tumors without apparent widespread necrosis were embedded in tissue freezing medium (Miles Inc.; Elkart, Ind.) and snap frozen in liquid nitrogen. […] The vessel density and architecture was quantified as described earlier [Griffioen et al., Biochemical Journal 354, 233-242 (2001)]. […]
# endothelial cell (EC) = assay: EC Proliferation Assay, [3H]thymidine incorporation (Example 36, Table 1); assay type: cell-based; settings: Table 1 and FIG. 3
# Protocol: Human umbilical vein derived EC(HUVEC) were harvested from normal human umbilical cords by perfusion with 0.125% trypsin/EDTA as described in Groenewegen et al., J. Exp. Med. 164, 131-143 (1986). For determination of quiescent EC phenotype isolated ECs were immediately fixed in 1% paraformaldehyde. Human microvascular ECs (MVECs) were isolated. ECs were cultured in fibronectin coated tissue culture flasks in culture medium (RPMJ-1640 with 20% human serum (HS), supplemented with 2 mM glutamine and 100 U/ml penicillin and 0.1 mg/ml streptomycin).
# EC proliferation was measured using a [^3H]thymidine incorporation assay. ECs were seeded at 5000 cells/well in flatbottomed tissue culture plates and grown for 3 days, in the absence or presence of regulators, in culture medium. During the last 6 hours of the assay, the culture was pulsed with 0.5μ Ci [methyl-^3H]thymidine/well.
# [3] = Toxicity assays in tumor-bearing mice: behavior, body weight, organ morphology; assay type: in vivo; settings: for signs of toxicity (behavior, weight gain, hematocrit), in words: all in vivo tumor experiments
# Protocol: As an indirect measurement of general toxicity, body weights of mice were monitored twice weekly, using a digital balance (Ohaus Florham, N.J.). To determine hematocrit levels, blood samples were extracted by tail vein bleedings one day after terminating treatment, and blood was collected in heparinized micro-hematocrit capillary lubes (Fisher Pittsburgh, Pa.). Samples were spun down for 10 minutes in a micro-hematocrit centrifuge (Clay-Adams; NY), and the amount of hematocrit was determined using an international microcapillary reader (IEC; Needham, Mass.).
molecule,measurement,setting,value
"5,11,17,23-Tetra-tert-butyl-25,27-bis(2-guanidinoethoxy)-26,28-dihydroxy calix[4]arene trifluoroacetic acid salt [Compound 27]",IC50,"LPS from P. aeruginosa; Table 3, errors estimated ±30%",> 5 µM
same,IC50,[1],3 µM
same,Apoptosis,B16F10 tumor,2357 ± 103 pixel counts per image
same,leukocyte infiltration into tumors (in words),[2],clearly more effective at increasing leukocyte infiltration into tumors than βpep-25
same,antiangiogenic activity (in words),endothelial cell (EC); trifluoroacetic acid salt,excellent antiangiogenic activity; also recorded: exceptional antiangiogenic activity
same,drop of body weights during treatment,"[3]; B16 model, i.p. administration",about 5%
same,"signs of toxicity (behavior, weight gain, hematocrit), in words",[3],did not generally show signs of toxicity
CN(C)CCNC(=O)COc1c2cccc1Cc1cccc(c1OCC(=O)NCCN(C)C)Cc1cccc(c1OCC(=O)NCCN(C)C)Cc1cccc(c1OCC(=O)NCCN(C)C)C2 [Compound 40],IC50,LPS from P. aeruginosa; Table 2,> 5 µM
same,IC50,"LPS from P. aeruginosa; Table 3, errors estimated ±30%",> 5 µM
same,IC50,[1],1 µM
same,Apoptosis,B16F10 tumor,2807 ± 140 pixel counts per image
same,leukocyte infiltration into tumors (in words),[2],clearly more effective at increasing leukocyte infiltration into tumors than βpep-25
same,antiangiogenic activity (in words),endothelial cell (EC),exceptional antiangiogenic activity
same,antiangiogenic activity (in words),endothelial cell (EC); listed as KM0118 (40),excellent antiangiogenic activity
same,"signs of toxicity (behavior, weight gain, hematocrit), in words",[3],did not generally show signs of toxicity
